Results as given in patent publication US7018992B2, “Hormone composition” (Novo Nordisk A/S, priority 2000, dated 2006).
Marks after values point to notes of the source that are not given here.

Tests used:
vaginal mucosal cells = test: Maturation value of vaginal mucosal cells, Example 2; format: in vivo, postmenopausal women
Method: (§1) Maturation values of vaginal mucosal cells were assessed as an indicator of changes in the condition of the vaginal mucosa in response to treatment.
After the screening visit, patients received no study treatment during the 4-week run-in period prior to the baseline visit. […] The vaginal tablets were identical in appearance. Patients inserted 1 tablet intravaginally, once daily for the initial 2 weeks of the study and then twice per week (Sunday and Thursday) for the remaining 10 weeks. Patients were instructed to use their medication at a consistent time each day, preferably in the morning.
(§2) Upon presentation to the clinic for each visit, a vaginal cytology specimen was obtained. Patients then inserted the tablets. […] The blood samples obtained at 30 minutes before insertion, and at 6, 12, and 24 hours after insertion were also used to determine the FSH concentration via immunoradiometric assay.
The maturation value of vaginal mucosal cells was calculated from the percentages of parabasal, intermediate, and superficial cells according to the following equation: maturation value=0×[parabasal cells, %]+0.5×[intermediate cells, %]+1.0×[superficial cells, %]

[1] = test system: postmenopausal women with atrophic vaginitis; test: Patients with vaginal pH values below 5.5, Example 3; format: in vivo
Method: (§3) Efficacy was measured with composite scores of vaginal symptoms (dryness, soreness, and irritation) and vaginal health (secretions, epithelial integrity, surface thickness, and pH). Vaginal and urethral cytology analyses were also performed, and the vaginal maturation value was determined. Safety assessments included endometrial biopsies.
(§4) All vaginal tablets were identical in appearance. Patients inserted 1 tablet daily for 14 days. Thereafter, patients inserted 1 tablet twice per week (Sunday and Thursday) for the remainder of the trial. Patients were to insert the tablets at the same time each day (preferably at bedtime). Patients were evaluated for efficacy and safety at Week—4 (screening), Week 0 (baseline), and Weeks 2, 7, and 12.
Investigators used a severity scale of none, mild, moderate, or severe to assess vaginal health characteristics (secretions, epithelial integrity, surface thickness, color, and pH). Severity categories were assigned ascending scores from 0 (none) to 3 (severe) for analysis. To avoid multiple endpoint issues, composite scores were defined. A composite score for vaginal health was defined as the average of the individual vaginal health characteristic scores. The composite score and the change from baseline for the composite score were examined at each time point. Differences within and between treatment groups were analyzed using an analysis of variance (ANOVA).

vaginal cells = test: Vaginal maturation value, Example 3; format: in vivo, postmenopausal women; conditions: 25 or 10 μg E2 (active treatment groups), Week 12
Method: as §3, §4
(§5) Vaginal and urethral cell samples were harvested and analyzed by independent cytologists to determine the percentages of parabasal, intermediate, and superficial cells. Maturation values were calculated according to the following equation: maturation value=1.0×[superficial cells, %]+0.5×[intermediate cells, %] Endometrial biopsies were performed at the end of the study in patients with intact uteri. The number of patients with abnormal biopsies was compared between treatment groups.

[2] = test system: superficial vaginal and urethral cells; test: Subjects by percentages of both superficial vaginal and urethral cells, Example 3; format: in vivo, postmenopausal women
Method: as §4, §5

[3] = test system: superficial urethral cells; test: Urethral cytology, percentage of superficial cells, Example 3; format: in vivo, postmenopausal women
Method: as §3, §4, §5

endometrium = test: Endometrial biopsy at end of study, Example 3; format: in vivo, postmenopausal women
Method: as §3, §4, §5

[4] = test system: follicle stimulating hormone (FSH); test: Serum FSH concentration (immunoradiometric assay), Example 2; format: in vivo, postmenopausal women; conditions: 25 μg E2, Week 12
Method: as §1, §2
Data for area under the curve and maximal concentration were converted to a logarithmic scale, and changes from first dose (at the baseline visit) in the logarithmic values were estimated using 95% confidence intervals derived from paired t-tests. […] Differences within treatment groups in FSH concentration were determined using the Wilcoxon signed rank test based on changes from baseline in mean concentrations at weeks 2 and 12. Mean concentrations were defined as the average concentrations obtained at 30 minutes before tablet insertion and 6, 12, and 24 hours after insertion.

[5] = test system: superficial vaginal cells; test: Vaginal cytology, percentage of superficial cells, Example 3; format: in vivo, postmenopausal women
Method: as §3, §4, §5

Compound: C[C@]12CC[C@@H]3c4ccc(O)cc4CC[C@H]3[C@@H]1CC[C@@H]2O [E2, 17β-estradiol]
- Mean maturation value (vaginal mucosal cells; 10 μg E2, Week 0 (baseline), mean ± SD): 51.0
- Number of patients with increases in maturation values from baseline (vaginal mucosal cells; 10 μg E2, Week 12): 14 patients
- Number of patients with increases in maturation values from baseline (vaginal mucosal cells; 25 μg E2, Week 12): 13 patients
- Mean change from baseline in maturation value (vaginal mucosal cells; 25 μg E2, Week 12, mean ± SD, P ≦ .01): 7.0 ± 8.7^b
- Number of patients with vaginal pH values below 5.5 ([1]; 10 μg E2, Week 0): 27/89
- Number of patients with vaginal pH values below 5.5 ([1]; 10 μg E2, Week 2): 67/84
- Number of patients with vaginal pH values below 5.5 ([1]; 10 μg E2, Week 7): 57/80
- Number of patients with vaginal pH values below 5.5 ([1]; 10 μg E2, Week 12): 54/71
- Number of patients with vaginal pH values below 5.5 ([1]; 25 μg E2, Week 0): 31/90
- Number of patients with vaginal pH values below 5.5 ([1]; 25 μg E2, Week 2): 64/87
- Number of patients with vaginal pH values below 5.5 ([1]; 25 μg E2, Week 7): 71/83
- Percentage of patients with vaginal pH values below 5.5 ([1]; 25 μg E2, Week 7): 85.5%
- Number of patients with vaginal pH values below 5.5 ([1]; 25 μg E2, Week 12): 63/79
- Percentage of patients with vaginal pH values below 5.5 ([1]; 25 or 10 μg E2 (active treatment groups), Week 12): 75%
- Maturation value (vaginal cells): approximately 60%
- Number of subjects with both superficial vaginal and urethral cells less than or equal to 5% ([2]; 10 μg E2, Week 0): 53 subjects
- Number of subjects with increases in percentages of both superficial vaginal and urethral cells ([2]; 10 μg E2, Week 12): 44 subjects
- Number of subjects with both superficial vaginal and urethral cells less than or equal to 5% ([2]; 25 μg E2, Week 0): 57 subjects
- Number of subjects with increases in percentages of both superficial vaginal and urethral cells ([2]; 25 μg E2, Week 12): 52 subjects
- Mean percentage of superficial urethral cells ([3]; 10 μg E2, Week 0): 2.5%
- Mean change from baseline in percentage of superficial urethral cells ([3]; 10 μg E2, Week 12): 6.8%
- Mean percentage of superficial urethral cells ([3]; 10 μg E2, Week 12): 9.5%
- Mean percentage of superficial urethral cells ([3]; 25 μg E2, Week 0): 3.2%
- Mean change from baseline in percentage of superficial urethral cells ([3]; 25 μg E2, Week 12): 7.5%
- Mean percentage of superficial urethral cells ([3]; 25 μg E2, Week 12): 11.2%
- Endometrial biopsy result Abnormal (hyperplasia or carcinoma), number of patients (endometrium; 10 μg E2, Week 12, N = 32): 0
- Endometrial biopsy result Abnormal (hyperplasia or carcinoma), percentage of patients (endometrium; 10 μg E2, Week 12, N = 32): 0.0%
- Endometrial biopsy result Abnormal (hyperplasia or carcinoma), percentage of patients (endometrium; 25 μg E2, Week 12, N = 32): 3.1%
- Number of patients with mean FSH concentrations below 35 [4]: 3 patients
- Mean percentage of superficial vaginal cells ([5]; 10 μg E2, Week 0): 3.1%
- Mean change from baseline in percentage of superficial vaginal cells ([5]; 10 μg E2, Week 2): 25.0^a %
- Mean percentage of superficial vaginal cells ([5]; 25 μg E2, Week 0): 4.0%
